Results as given in patent US20020051978A1, “Methods and compositions for the identification, assessment, prevention and therapy of human cancers” (priority 2000, published 2002).
Like-named read-outs stand apart in the source and are kept apart here.

How the values were obtained:
[1] = system: 60 cancer cell lines (NCI 60 cancer cell line series); conditions: cited from earlier work
[2] = system: 60 cancer cell lines (NCI 60 cancer cell line series); assay: NCI-DTP in vitro cancer screen, sulforhodamine B (SRB) growth inhibition, 48 hour exposure; format: cell-based, human; set-up: key to sensitivity class Ovarian OVCAR-8 CL6005 / sensitivity class Ovarian SK-OV-3 CL6011 / sensitivity class Prostate DU-145 CL11003 / sensitivity class NSCLC NCI-H522 CL1003 / sensitivity class Ovarian IGROV1 CL6010 / sensitivity class Ovarian OVCAR-4 CL6002 / sensitivity class Prostate PC-3(I) CL11001 / sensitivity class Renal A498 CL9013 / sensitivity class Renal SN12C CL9008: sensitivity class: 1 = Low, 2 = Medium, 3 = High
Method in brief: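 Sixty NCI-DTP cancer lines plated at line-specific densities, dosed on day 1 in duplicate with 5 concentrations at ten-fold intervals. After 48 h exposure, cell mass read by SRB staining; GI50 (50% growth inhibition) taken from dose-response curves and expressed as -log GI50.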

Sc1ncnc2nc[nH]c12 [6-mercaptopurine]
-Log (GI50) ([1]; Breast BT-549 (CL5013)): 3.9
-Log (GI50) ([1]; Breast HS-578T CL5006): 4.8
-Log (GI50) ([1]; Breast MCF7(I) (CL5001)): 5.8
-Log (GI50) ([1]; Breast MCF7/ADRr (CL5002)): 5.5
-Log (GI50) ([1]; Breast MDA-MB-231 CL5005): 4.7
-Log (GI50) ([1]; Breast MDA-MB-435 (CL5011)): 5.9
-Log (GI50) ([1]; Breast MDA-N CL5012): 5.8
-Log (GI50) ([1]; Breast T-47D (CL5014)): 5.4
-Log (GI50) ([1]; CNS SF-268 CL12014): 5.4
-Log (GI50) ([1]; CNS SF-295 CL12015): 5.3
-Log (GI50) ([1]; CNS SF-539 CL12016): 5.6
-Log (GI50) ([1]; CNS SNB-19 (CL12002)): 3.9
-Log (GI50) ([1]; CNS SNB-75(I) CL12005): 5.1
-Log (GI50) ([1]; CNS U251(I) CL12009): 4.9
-Log (GI50) ([1]; Colon COLO-250 CL4010): 5.3
-Log (GI50) ([1]; Colon HCC-2998 (CL4002)): 5.5
-Log (GI50) ([1]; Colon HCT-15 CL4015): 5.4
-Log (GI50) ([1]; Colon HCT-116 (CL4003)): 5.6
-Log (GI50) ([1]; Colon HT29(I) CL4001): 5.4
-Log (GI50) ([1]; Colon KM12 (CL4017)): 5.1
-Log (GI50) ([1]; Colon SW-620 (CL4009)): 5.2
-Log (GI50) ([1]; Leukemia CCRF-CEM(I) (CL7003)): 5.9
-Log (GI50) ([1]; Leukemia HL-60(I) (CL7008)): 5.6
-Log (GI50) ([1]; Leukemia K562(I) CL7005): 6.5
-Log (GI50) ([1]; Leukemia MOLT-4 (CL7006)): 5.8
-Log (GI50) ([1]; Leukemia RPMI-8226(I) (CL7010)): 5.8
-Log (GI50) ([1]; Leukemia SR CL7019): 5.9
-Log (GI50) ([1]; Melanoma LOX IMVI CL10001): 6.4
-Log (GI50) ([1]; Melanoma M14 (CL10014)): 6.2
-Log (GI50) ([1]; Melanoma MALME-3M CL10002): 5.4
-Log (GI50) ([1]; Melanoma SK-MEL-2 (CL10005)): 5.2
-Log (GI50) ([1]; Melanoma SK-MEL-5 (CL10007)): 5.1
-Log (GI50) ([1]; Melanoma SK-MEL-28 (CL10008)): 3.5
-Log (GI50) ([1]; Melanoma UACC-62 (CL10020)): 5.8
-Log (GI50) ([1]; Melanoma UACC-257 (CL10021)): 4.8
-Log (GI50) ([1]; NCSLC NCI-H522 CL1003): 5.8
-Log (GI50) ([1]; NSCLC A549/ATCC (CL1004)): 4.6
-Log (GI50) ([1]; NSCLC EKVX (CL1008)): 3.6
-Log (GI50) ([1]; NSCLC HOP-62 (CL1026)): 5.7
-Log (GI50) ([1]; NSCLC HOP-92 (CL1029)): 5.6
-Log (GI50) ([1]; NSCLC NCI-H23(I) CL1001): 5.4
-Log (GI50) ([1]; NSCLC NCI-H226 CL1013): 4.3
-Log (GI50) ([1]; NSCLC NCI-H332M CL1017): 5.1
-Log (GI50) ([1]; NSCLC NCI-H460 CL1021): 5.3
-Log (GI50) ([1]; Ovarian IGROV1 CL6010): 5.1
-Log (GI50) ([1]; Ovarian OVCAR-3 CL6001): 6.1
-Log (GI50) ([1]; Ovarian OVCAR-4 CL6002): 5.1
-Log (GI50) ([1]; Ovarian OVCAR-5 CL6003): 5.1
-Log (GI50) ([1]; Ovarian OVCAR-8 CL6005): 5.6
-Log (GI50) ([1]; Ovarian SK-OV-3 CL6011): 6.0
-Log (GI50) ([1]; Prostate DU-145 CL11003): 5.6
-Log (GI50) ([1]; Prostate PC-3(I) CL11001): 5.4
-Log (GI50) ([1]; Renal 786-O CL9018): 5.7
-Log (GI50) ([1]; Renal A498 CL9013): 4.2
-Log (GI50) ([1]; Renal ACHN CL9023): 5.2
-Log (GI50) ([1]; Renal CAKI-1 CL9015): 5.6
-Log (GI50) ([1]; Renal RXF-393 CL9016): 4.5
-Log (GI50) ([1]; Renal SN12C CL9008): 4.6
-Log (GI50) ([1]; Renal TK10 CL9024): 5.7
-Log (GI50) ([1]; Renal UO-31 CL9004): 5.2
classification of cell line as Low(1), Medium(2) or High(3) sensitivity to compound ([2]; Breast BT-549 (CL5013)): 1
classification of cell line as Low(1), Medium(2) or High(3) sensitivity to compound ([2]; Breast HS-578T CL5006): 1
classification of cell line as Low(1), Medium(2) or High(3) sensitivity to compound ([2]; Breast MCF7(I) (CL5001)): 2
classification of cell line as Low(1), Medium(2) or High(3) sensitivity to compound ([2]; Breast MCF7/ADRr (CL5002)): 2
classification of cell line as Low(1), Medium(2) or High(3) sensitivity to compound ([2]; Breast MDA-MB-231 CL5005): 1
classification of cell line as Low(1), Medium(2) or High(3) sensitivity to compound ([2]; Breast MDA-MB-435 (CL5011)): 2
classification of cell line as Low(1), Medium(2) or High(3) sensitivity to compound ([2]; Breast MDA-N CL5012): 2
classification of cell line as Low(1), Medium(2) or High(3) sensitivity to compound ([2]; Breast T-47D (CL5014)): 2
classification of cell line as Low(1), Medium(2) or High(3) sensitivity to compound ([2]; CNS SF-268 CL12014): 2
classification of cell line as Low(1), Medium(2) or High(3) sensitivity to compound ([2]; CNS SF-295 CL12015): 2
classification of cell line as Low(1), Medium(2) or High(3) sensitivity to compound ([2]; CNS SF-539 CL12016): 2
classification of cell line as Low(1), Medium(2) or High(3) sensitivity to compound ([2]; CNS SNB-19 (CL12002)): 1
classification of cell line as Low(1), Medium(2) or High(3) sensitivity to compound ([2]; CNS SNB-75(I) CL12005): 2
classification of cell line as Low(1), Medium(2) or High(3) sensitivity to compound ([2]; CNS U251(I) CL12009): 2
classification of cell line as Low(1), Medium(2) or High(3) sensitivity to compound ([2]; Colon COLO-250 CL4010): 2
classification of cell line as Low(1), Medium(2) or High(3) sensitivity to compound ([2]; Colon HCC-2998 (CL4002)): 2
classification of cell line as Low(1), Medium(2) or High(3) sensitivity to compound ([2]; Colon HCT-15 CL4015): 2
classification of cell line as Low(1), Medium(2) or High(3) sensitivity to compound ([2]; Colon HCT-116 (CL4003)): 2
classification of cell line as Low(1), Medium(2) or High(3) sensitivity to compound ([2]; Colon HT29(I) CL4001): 2
classification of cell line as Low(1), Medium(2) or High(3) sensitivity to compound ([2]; Colon KM12 (CL4017)): 2
classification of cell line as Low(1), Medium(2) or High(3) sensitivity to compound ([2]; Colon SW-620 (CL4009)): 2
classification of cell line as Low(1), Medium(2) or High(3) sensitivity to compound ([2]; Leukemia CCRF-CEM(I) (CL7003)): 3
classification of cell line as Low(1), Medium(2) or High(3) sensitivity to compound ([2]; Leukemia HL-60(I) (CL7008)): 2
classification of cell line as Low(1), Medium(2) or High(3) sensitivity to compound ([2]; Leukemia K562(I) CL7005): 3
classification of cell line as Low(1), Medium(2) or High(3) sensitivity to compound ([2]; Leukemia MOLT-4 (CL7006)): 2
classification of cell line as Low(1), Medium(2) or High(3) sensitivity to compound ([2]; Leukemia RPMI-8226(I) (CL7010)): 2
classification of cell line as Low(1), Medium(2) or High(3) sensitivity to compound ([2]; Leukemia SR CL7019): 3
classification of cell line as Low(1), Medium(2) or High(3) sensitivity to compound ([2]; Melanoma LOX IMVI CL10001): 3
classification of cell line as Low(1), Medium(2) or High(3) sensitivity to compound ([2]; Melanoma M14 (CL10014)): 3
classification of cell line as Low(1), Medium(2) or High(3) sensitivity to compound ([2]; Melanoma MALME-3M CL10002): 2
classification of cell line as Low(1), Medium(2) or High(3) sensitivity to compound ([2]; Melanoma SK-MEL-2 (CL10005)): 2
classification of cell line as Low(1), Medium(2) or High(3) sensitivity to compound ([2]; Melanoma SK-MEL-5 (CL10007)): 2
classification of cell line as Low(1), Medium(2) or High(3) sensitivity to compound ([2]; Melanoma SK-MEL-28 (CL10008)): 1
classification of cell line as Low(1), Medium(2) or High(3) sensitivity to compound ([2]; Melanoma UACC-62 (CL10020)): 2
classification of cell line as Low(1), Medium(2) or High(3) sensitivity to compound ([2]; Melanoma UACC-257 (CL10021)): 1
classification of cell line as Low(1), Medium(2) or High(3) sensitivity to compound ([2]; NSCLC A549/ATCC (CL1004)): 1
classification of cell line as Low(1), Medium(2) or High(3) sensitivity to compound ([2]; NSCLC EKVX (CL1008)): 1
classification of cell line as Low(1), Medium(2) or High(3) sensitivity to compound ([2]; NSCLC HOP-62 (CL1026)): 2
classification of cell line as Low(1), Medium(2) or High(3) sensitivity to compound ([2]; NSCLC HOP-92 (CL1029)): 2
classification of cell line as Low(1), Medium(2) or High(3) sensitivity to compound ([2]; NSCLC NCI-H226 CL1013): 1
sensitivity class NSCLC NCI-H23(I) CL1001 ([2]; cell line NSCLC NCI-H23(I), CL1001): 2
sensitivity class NSCLC NCI-H332M CL1017 ([2]; cell line NSCLC NCI-H332M, CL1017): 2
sensitivity class NSCLC NCI-H460 CL1021 ([2]; cell line NSCLC NCI-H460, CL1021): 2
sensitivity class NSCLC NCI-H522 CL1003 ([2]; cell line NSCLC NCI-H522, CL1003): 2
sensitivity class Ovarian IGROV1 CL6010 ([2]; cell line Ovarian IGROV1, CL6010): 2
sensitivity class Ovarian OVCAR-3 CL6001 ([2]; cell line Ovarian OVCAR-3, CL6001): 3
sensitivity class Ovarian OVCAR-4 CL6002 ([2]; cell line Ovarian OVCAR-4, CL6002): 2
sensitivity class Ovarian OVCAR-5 CL6003 ([2]; cell line Ovarian OVCAR-5, CL6003): 2
sensitivity class Ovarian OVCAR-8 CL6005 ([2]; cell line Ovarian OVCAR-8, CL6005): 2
sensitivity class Ovarian SK-OV-3 CL6011 ([2]; cell line Ovarian SK-OV-3, CL6011): 3
sensitivity class Prostate DU-145 CL11003 ([2]; cell line Prostate DU-145, CL11003): 2
sensitivity class Prostate PC-3(I) CL11001 ([2]; cell line Prostate PC-3(I), CL11001): 2
sensitivity class Renal 786-O CL9018 ([2]; cell line Renal 786-O, CL9018): 2
sensitivity class Renal A498 CL9013 ([2]; cell line Renal A498, CL9013): 1
sensitivity class Renal ACHN CL9023 ([2]; cell line Renal ACHN, CL9023): 2
sensitivity class Renal CAKI-1 CL9015 ([2]; cell line Renal CAKI-1, CL9015): 2
sensitivity class Renal RXF-393 CL9016 ([2]; cell line Renal RXF-393, CL9016): 1
sensitivity class Renal SN12C CL9008 ([2]; cell line Renal SN12C, CL9008): 1
sensitivity class Renal TK10 CL9024 ([2]; cell line Renal TK10, CL9024): 2
sensitivity class Renal UO-31 CL9004 ([2]; cell line Renal UO-31, CL9004): 2
